Residues, ends and D or L forms follow the SMILES beside them. *: point of attachment. Cbz = O=C(OCc1ccccc1)*; CH2F = FC*
What was measured:
Assay type in all cases: cell-based, human
MV4-11 [1] = assay: Cytokine induction, electrochemiluminescence assay of culture supernatant; settings: for Effect of caspase inhibitor on secreted IL-1β induction by Compound 1: MV411, 1000 nM Compound 1 with 10 μM inhibitor
Protocol: (§1) For cytokine assays on AML cell lines, cells were seeded at 1 million per mL, 3 mL per well of 6-well plates and allowed set overnight. The next day, cells were treated with 3 μL 1000× working stock of compounds of interest.
(§2) Human AML cell lines, HL-60 (CCL-240), KG-1 (CCL-246), ML-2 (ACC-15), MOLM-13 (ACC-554), MV-4-11 (CRL-9591), NOMO-1 (ACC-542), TF-1 (CRL-2003), THP-1 (TIB-202), and U937 (CRL-1593) were obtained from American Type Culture Collection (ATCC; Manassas, VA) or Deutsche Sammlung von Mikroorganismen and Zellkulturen (DSMZ, Germany) cell banks. Acute myeloid leukemia cell lines were maintained in RPMI-1640 (ATCC Cat No. 30-2001) containing 20% fetal bovine serum (FBS) (Corning Cat No. 35-010-CV) and maintained in humidified incubators at 5% carbon dioxide.
(§3) IL-1α (Meso Scale Disgnostics, Cat No. K151RBD), IL-1β (Meso Scale Disgnostics, Cat No. K151QPD), IL-1RA (Meso Scale Disgnostics, Cat No. K151WTD), IL-18 (Meso Scale Disgnostics, Cat No. K151VJK), TNFa (Meso Scale Disgnostics, Cat No. K151QWD), VEGF Meso Scale Disgnostics, Cat No. K151RHD) levels were measured by (Meso Scale Disgnostics assay kits following manufacturer's instructions. Measurements were made on a MESO™ SECTOR S 600 plate reader (Meso Scale Disgnostics).
(§4) Cell proliferation (CTG) and caspase 3/7 activation (IncuCyte) were analyzed using GraphPad Prism. Electrochemiluminescence data was analyzed using MSD Discovery Workbench platform.
(§5) The level of intracellular pro IL-1β and released IL-1β in eight AML cell lines and normal PBMC treated with a titration of Compound 1 over a 48 hour period was assessed. (see FIGS. 1A-1C, Table 2). Supernatant IL-1βb level was induced over 5 fold in 6 out of 8 AML cell lines and normal PBMC upon Compound 1 treatment compared to DMSO (FIGS. 1A, 1B, and 1C, Table 2).

ML-2 [2] = assay: as above; settings: for Effect of caspase inhibitor on secreted IL-1β induction by Compound 1: 1000 nM Compound 1 with 1, 10, 100 μM inhibitor; for Secreted IL-1β in cell culture supernatant: 24, 48 and 72 hours, doses conferring similar caspase3/7 activation and viability loss; for Effect of second agent on Compound 1 induced IL-1β: ML-2 (FIG. 12)
Protocol: as §1, §2, §3, §4, §5

ML-2 cells = assay: Immunoblot analysis of target proteins; settings: 24, 48 and 72 hours, doses conferring similar caspase3/7 activation and viability loss
Protocol: Cells were washed in ice-cold 1×PBS twice before harvest in Cell Extraction Buffer (ThermoFisher Cat No. FNN0011) supplemented with 1× Halt Protease Inhibitor Cocktail (ThermoFisher Cat No. 78429). Whole cell extracts were collected after centrifugation at 14,000 g for 10 minutes, resolved on 4-12% Bis-Tris Novex Precast Gels (ThermoFisher Cat No. WG1403A), transferred onto a nitrocellulose membrane using the Turboblot Turbo Transfer System (Bio-Rad), and probed with the indicated primary antibodies. Bound antibodies were detected with IRDye-680 or -800 conjugated secondary antibodies using a LI-COR scanner.
Antibodies used for immunoblot: mouse anti-human GSPT-1 mAb conjugated with AL647 (clone number GSPT1-164-17G9-G6, Celgene, San Diego, CA), IL-1β (R&D Systems, Cat No. AF-201-NA), cleaved caspase 3 (Cell Signaling, Cat No. 9664S), alpha-tubulin (Cell Signaling, Cat No. 3873S), cleaved Caspase-8 (Cell Signaling, Cat No. 9748S), Caspase-1 (Cell Signaling, Cat No. 3866S), HA tag (Cell Signaling, Cat No. 3724), phosphor-eIF2a (Cell Signaling, Cat No. 9721), total eIF2a (Cell Signaling, Cat No. 9722), ATF4 (Cell Signaling, Cat No. 11815S), CHOP (Abcam, Cat No. 11419), GAPDH (Cell Signaling, Cat No. 5174), rabbit anti-mouse 800 antibody (LI-COR Biosciences), rabbit anti-mouse 680 antibody (LI-COR Biosciences), mouse anti-rabbit 680 antibody (LI-COR Biosciences), mouse anti-rabbit 800 antibody (LI-COR Biosciences)
as §5

MOLM-13 = assay: Cytokine induction, electrochemiluminescence assay of culture supernatant; settings: for Effect of second agent on Compound 1 induced IL-1β: MOLM13 (FIG. 13)
Protocol: as §1, §2, §3, §4, §5

ML-2 [3] = assay: as above; settings: compounds at 1 μM, 72 hours
MV4-11 [4] = assay: Caspase 8/FLICE activity colorimetric assay; settings: compounds at 1 μM, 24, 48 and 72 hours
Protocol: (§6) Next, tests were performed to see if caspase 8 activation alone is sufficient to mediate IL-1β induction. […] To ensure caspase 8 activity was captured at an appropriate time frame, caspase 8 activation levels at 24, 48 and 72 hours were measured (FIGS. 3C and 3D) using a caspase 8/FLICE activity colorimetric assay.

ML-2 [5] = assay: Caspase 8/FLICE activity colorimetric assay; settings: compounds at 1 μM, 24, 48 and 72 hours
Protocol: as §6

MV4-11 [6] = assay: Cytokine induction, electrochemiluminescence assay of culture supernatant; settings: compounds at 1 μM, 72 hours
[7] = system: Normal Peripheral Blood Mononuclear Cells; assay: as above; settings: PBMC
Protocol: Normal PBMCs were purchased from AllCells (Cat No. PB006F). Primary AML BMMC in were purchased from Conversant (SKU ID: BBM1000-E1110036458110215SH) or Fidelis Research (AML55, AML57, AML73, AML74, AML76, AML79, AML80, AML81, AML84, AML95). Bone marrow from health donor was purchased from StemCell Technologies (Cat No. 70001.2).
Normal PBMCs were cultured in RPMI-1640 (ATCC Cat No. 30-2001) containing 20% fetal bovine serum (Corning Cat No. 35-010-CV). Primary AML and bone marrows were cultured in Complete Medium Cytokines 1X: StemSpam™ Serum-Free Expansion Medium (StemCell Technologies Cat No. 09650) supplemented with 50 ng/mL Stem Cell Factor (Peprotech Cat No. 300-07), 50 ng/mL recombinant Human FLT3-Ligand (Peprotech Cat No. 300-19), 20 ng/mL recombinant human-interleukin-3 (Peprotech Cat No. 200-03), […] recombinant human-interleukin-6 (Peprotech Cat No. 200-06), 1 μM StemRegenin (StemCell Technologies Cat No. 72342), penicillin/streptomycin (Invitrogen Cat No. 15140122).
as §3, §4, §5

[8] = system: eight AML cell lines and normal PBMC; assay: IL-1 family cytokine induction across the cell panel; settings: most cell lines tested (FIG. 1B: ML-2); LPS as positive control
Protocol: as §1, §3, §5
The maturation of IL-1β can be mediated through classical caspase-1 inflammasome pathway, or a caspase-8 dependent non-canonical inflammasome signaling (Antonopoulos et al. J Biol Chem. 2015, 290(33):20167-84; Chauhan et al. Cell Rep. 2018, 25(9):2354-2368; and Schneider et al. Cell Rep. 2017, 21(13):3846-3859). To understand if classical caspase-1 mediated inflammasome pathway was activated by Compound 1, the levels of an inflammasome marker, IL-18, were tested in response to Compound 1 (FIG. 1B, Table 1), using a known inflammasome stimulant lipopolysaccharide (LPS) as positive control.

THP-1 = assay: Cytokine induction, electrochemiluminescence assay of culture supernatant
Protocol: as §1, §2, §3, §4, §5

U937 = assay: as above
Protocol: as §1, §2, §3, §4, §5

KG-1 = assay: as above
Protocol: as §1, §2, §3, §4, §5

NOMO-1 = assay: as above
Protocol: as §1, §2, §3, §4, §5

TF-1 = assay: as above
Protocol: as §1, §2, §3, §4, §5

## CC(C)(C)[C@H](NC(=O)c1ccc(N)c(Cl)c1)C(=O)N1CCC[C@H]1C(=O)N[C@H](C=O)CC(=O)O [VRT043198]
MV4-11 [1]
  Effect of caspase inhibitor on secreted IL-1β induction by Compound 1: did not suppress IL-1β induction to nearly the same extent as pan- or caspase 8 inhibitors
ML-2 [2]; ML-2
  Effect of caspase inhibitor on secreted IL-1β induction by Compound 1: did not suppress IL-1β induction to nearly the same extent as pan- or caspase 8 inhibitors

## COC(=O)C[C@H](NC(=O)[C@H](C)NC(=O)[C@@H](NC(=O)OCc1ccccc1)C(C)C)C(=O)CF [Z-VAD-FMK] (Cbz-Val-Ala-Asp(OMe)-CH2F)
MV4-11 [1]
  Effect of caspase inhibitor on secreted IL-1β induction by Compound 1: significantly blocked
ML-2 [2]; ML-2
  Effect of caspase inhibitor on secreted IL-1β induction by Compound 1: significantly blocked

## CC[C@H](C)[C@H](NC(=O)OCc1ccccc1)C(=O)N[C@@H](CCC(=O)OC)C(=O)N[C@H](C(=O)N[C@@H](CC(=O)OC)C(=O)CF)[C@@H](C)O [Z-VAD-IETD] (Cbz-IE(OMe)TD(OMe)-CH2F)
MV4-11 [1]
  Effect of caspase inhibitor on secreted IL-1β induction by Compound 1: significantly blocked
ML-2 [2]; ML-2
  Effect of caspase inhibitor on secreted IL-1β induction by Compound 1: significantly blocked

## CC(C)C[C@H](NC(=O)[C@H](Cc1ccccc1)NC(=O)c1cnccn1)B(O)O [bortezomib]
ML-2 cells
  Intracellular pro-IL-1β (immunoblot): not able to induce high levels
ML-2 [2]; ML-2
  IL-1β induced by ER stress / unfolded protein response inducers: Low levels of IL-1β was induced
  Secreted IL-1β in cell culture supernatant: not able to induce high levels

## C[C@]12CCC(=O)C=C1CC[C@@H]1[C@@H]2[C@@H](O)C[C@@]2(C)[C@H]1CC[C@]2(O)C(=O)CO [cortisol]
MOLM-13
  Effect of second agent on Compound 1 induced IL-1β: can be suppressed
ML-2 [2]
  Effect of second agent on Compound 1 induced IL-1β: can be suppressed

## C[C@]12CCC(=O)C=C1CC[C@@H]1[C@@H]2C(=O)C[C@@]2(C)[C@H]1CC[C@]2(O)C(=O)CO [cortisone]
MOLM-13
  Effect of second agent on Compound 1 induced IL-1β: can be suppressed
ML-2 [2]
  Effect of second agent on Compound 1 induced IL-1β: can be suppressed

## C[C@@H]1C[C@@H]([C@H](O)CC2CC(=O)NC(=O)C2)C(=O)[C@@H](C)C1 [cycloheximide, reference compound]
ML-2 cells
  Intracellular pro-IL-1β (immunoblot): not able to induce high levels
ML-2 [2]; ML-2
  Secreted IL-1β in cell culture supernatant: not able to induce high levels

## COc1cccc2c1C(=O)c1c(O)c3c(c(O)c1C2=O)C[C@@](O)(C(C)=O)C[C@@H]3O[C@H]1C[C@H](N)[C@H](O)[C@H](C)O1 [daunorubicin, reference compound]
ML-2 [3]
  Secreted IL-1β levels, panel of mechanistic compounds: not able to induce secreted IL-1β as efficiently as Compound 1
MV4-11 [4]
  Caspase 8 activation level: higher extent of caspase 8 activation than Compound 1
ML-2 [5]
  Caspase 8 activation level: higher extent of caspase 8 activation than Compound 1
MV4-11 [6]
  Secreted IL-1β levels, panel of mechanistic compounds: not able to induce secreted IL-1β as efficiently as Compound 1

## C[C@]12C=CC(=O)C=C1CC[C@@H]1[C@@H]2[C@@H](O)C[C@@]2(C)[C@H]1CC[C@]2(O)C(=O)CO [prednisolone]
MOLM-13
  Effect of second agent on Compound 1 induced IL-1β: can be suppressed
ML-2 [2]
  Effect of second agent on Compound 1 induced IL-1β: can be suppressed

## C[C@]12C=CC(=O)C=C1CC[C@@H]1[C@@H]2C(=O)C[C@@]2(C)[C@H]1CC[C@]2(O)C(=O)CO [prednisone]
MOLM-13
  Effect of second agent on Compound 1 induced IL-1β: can be suppressed
ML-2 [2]
  Effect of second agent on Compound 1 induced IL-1β: can be suppressed

## C/C=C(/C)C(=O)O[C@H]1C(C)=C2[C@H]([C@@H]1OC(=O)CCCCCCC)[C@@](C)(OC(C)=O)C[C@H](OC(=O)CCC)[C@@]1(O)[C@H]2OC(=O)[C@@]1(C)O [thapsigargin]
ML-2 cells
  Intracellular pro-IL-1β (immunoblot): not able to induce high levels
ML-2 [2]; ML-2
  IL-1β induced by ER stress / unfolded protein response inducers: Low levels of IL-1β was induced
  Secreted IL-1β in cell culture supernatant: not able to induce high levels

## C[C@]12C=CC(=O)C=C1CC[C@H]1[C@@H]3C[C@@H](O)[C@](O)(C(=O)CO)[C@@]3(C)C[C@H](O)[C@@]12F [triamcinolone]
MOLM-13
  Effect of second agent on Compound 1 induced IL-1β: can be suppressed
ML-2 [2]
  Effect of second agent on Compound 1 induced IL-1β: can be suppressed

## Z-YVAD
MV4-11 [1]
  Effect of caspase inhibitor on secreted IL-1β induction by Compound 1: did not suppress IL-1β induction to nearly the same extent as pan- or caspase 8 inhibitors
ML-2 [2]; ML-2
  Effect of caspase inhibitor on secreted IL-1β induction by Compound 1: did not suppress IL-1β induction to nearly the same extent as pan- or caspase 8 inhibitors

## lipopolysaccharide [LPS, reference compound]
[7]
  IL-1β induction: 174.15
  IL-18 induction: 1.88
[8]
  IL-18 levels (inflammasome marker): profound IL-18 induction at early time point (6 hrs)
MV4-11 [1]; MV4-11
  IL-1β induction: 65.19
  IL-18 induction: 24.45
MOLM-13; MOLM-13
  IL-1β induction: 0.00
ML-2 [2]; ML-2
  IL-1β induction: 8.70
  IL-18 induction: 1.21
THP-1
  IL-1β induction: 96.62
  IL-18 induction: 12.13
U937
  IL-1β induction: 1.44
  IL-18 induction: 1.28
KG-1
  IL-1β induction: 17.67
  IL-18 induction: 3.47
NOMO-1
  IL-1β induction: 3.11
  IL-18 induction: 1.77
TF-1
  IL-1β induction: 1.12
  IL-18 induction: 1.41

— US12090147B2, “Combination therapy with 2-(4-chlorophenyl)-N-((2-(2,6-dioxopiperidin-3-yl)-1-oxoisoindolin-5-yl)methyl)-2,2-difluoroacetamide” (Celgene Corporation, priority 2019, dated 2024)
